Source: patent US9670226B2, “Sesquiterpenoids” (National Institute of Biological Sciences, Beijing, priority 2014, dated 2017)

Columns and labels:
[1] = test system: glioblastoma T98G cells; assay: Cancer cell survival; format: cell-based, human; settings: different concentration
[2] = target: IKKγ/NEMO (Homo sapiens, UniProt Q9Y6K9); assay: Association with other NF-κB pathway proteins; format: binding
[3] = target: T1, IKKβ C46 containing peptide (#1, #2; amino acids 41-53) (Homo sapiens, UniProt O14920); assay: Peptide binding by MALDI-TOF
T1 construct: encompasses amino acids 41-53 of human IKKβ; made in house; host or cells: chemical peptide synthesis
Procedure: (§1) This peptide was tested for binding to 223 and probe by using MALDI-TOF (Matrix-Assisted […] Desorption/Ionization Time of Flight). m/z values at 2,047.978 and 2,479.259 were well matched with the calculated weights of #1+223 and #1+Probe, respectively. […] As expected, the peptide #2 containing amino acids 41-53 of human IKKβ interacted with both 223 and probe.

[4] = test system: IKKβ C46 containing peptide (#1, #2; amino acids 41-53); assay: Peptide binding by MALDI-TOF; design: species or system human
Procedure: as §1

[5] = test system: phosphorylation of IκBα; assay: LPS induced NF-κB activation: IκBα phosphorylation in RAW264.7 cells (western blot); format: cell-based, mouse
[6] = test system: production of NO in a mouse macrophage cell line RAW264.7; settings: RAW264.7 stimulated by LPS; previously shown (ref 22); cited from earlier work
[7] = target: T2, IKKα Cys46 into serine (Homo sapiens, UniProt O15111, C46S); assay: Binding to Cys46-to-serine mutant
T2 construct: Flag; made in house

[8] = test system: BGC-823 human gastric adenocarcinoma xenograft; assay: BGC-823 xenograft in nude mice; format: in vivo; settings: 223 25 mg/kg, qdx8
Procedure: Next we further examined anti-tumor effect of 223 in vivo. Nude mice bearing a BGC-823 human gastric adenocarcinoma xenograft were treated with vehicle or 223 (25 mg/kg, qdx8) or 10-hydroxycamptothecin (HCPT), a widely used anti-tumor drug (30 mg/kg, q6dx2).

[9] = test system: IFR3 phosphorylation; assay: LPS-induced type I interferon (IFN) responses; format: cell-based
[10] = test system: cancer cells; assay: Cell death in cancer cells (cell line not given); format: cell-based; settings: addition of DTT
[11] = target: C46A-IKKβ (Homo sapiens, UniProt O14920, C46A); assay: In vitro kinase assay with Flag-IκBα substrate
[12] = test system: cervical cancer HeLa cells; assay: Cancer cell survival; format: cell-based, human
[13] = target: WT-IKKβ (Homo sapiens, UniProt O14920); assay: In vitro kinase assay with Flag-IκBα substrate
[14] = target: T3, recombinant Flag-IKKβ (Homo sapiens, UniProt O14920); assay: Binding to purified recombinant protein (SDS-PAGE, streptavidin blot); settings: excess unlabeled compound
T3 construct: made in house; host or cells: 293T cells (transient transfection, anti-Flag purification)
Procedure: To determine whether 223 directly binds to IKKα and IKKβ, we generated recombinant IKKα and IKKβ proteins for further analysis. 293T cells were transfected with Flag-IKKα or Flag-IKKβ plasmid, and the recombinant Flag-IKKα or Flag-IKKβ was captured by anti-Flag agarose beads and was then eluted off the beads using Flag peptide. The purified Flag-IKKα or Flag-IKKβ was incubated with DMSO or increasing concentrations of Probe, and then the mixtures were resolved by SDS-PAGE, followed by immunoblotting with streptavidin or anti-Flag antibody.

[15] = target: T4, IKKβ (Homo sapiens, UniProt O14920); assay: IKKβ kinase inhibition; format: biochemical; settings: read-out: IC50 against IKKβ
T4 sequence (O14920 1-756): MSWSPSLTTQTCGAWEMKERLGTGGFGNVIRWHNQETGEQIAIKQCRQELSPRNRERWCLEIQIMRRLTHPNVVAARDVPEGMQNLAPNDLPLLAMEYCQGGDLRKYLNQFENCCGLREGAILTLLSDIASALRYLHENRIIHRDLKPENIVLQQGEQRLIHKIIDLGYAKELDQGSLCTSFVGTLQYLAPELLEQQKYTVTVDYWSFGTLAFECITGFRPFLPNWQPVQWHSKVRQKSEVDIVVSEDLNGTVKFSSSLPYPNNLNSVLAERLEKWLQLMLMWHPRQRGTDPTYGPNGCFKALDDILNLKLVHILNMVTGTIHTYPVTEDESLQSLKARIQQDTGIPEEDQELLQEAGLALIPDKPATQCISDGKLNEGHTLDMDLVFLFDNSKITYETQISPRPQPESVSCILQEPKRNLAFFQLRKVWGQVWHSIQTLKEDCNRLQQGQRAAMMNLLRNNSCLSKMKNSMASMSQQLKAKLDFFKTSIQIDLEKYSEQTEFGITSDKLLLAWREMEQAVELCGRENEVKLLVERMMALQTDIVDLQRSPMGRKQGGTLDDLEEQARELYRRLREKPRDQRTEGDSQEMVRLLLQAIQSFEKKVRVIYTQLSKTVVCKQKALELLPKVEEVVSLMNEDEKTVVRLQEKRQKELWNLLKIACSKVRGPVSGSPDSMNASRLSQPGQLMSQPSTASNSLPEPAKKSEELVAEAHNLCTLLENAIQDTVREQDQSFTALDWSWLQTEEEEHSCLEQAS
Source text: To further explore how (+)-ainsliadimer A inactivates IKKα/β, we conducted the molecular dynamics (MD) simulations using the first crystal structure of IKKβ^29 to sample the conformational states of IKKβ upon 223 binding. […] We next asked whether 223 could directly affect IKKβ kinase activity.

[16] = test system: gastric adenocarcinoma BCG-823 cells; assay: Cancer cell survival; format: cell-based, human
[17] = target: T5, IKKβ C46A (Homo sapiens, UniProt O14920, C46A); assay: Binding to IKKβ cysteine mutants
T5 construct: Flag; made in house
T5 sequence (O14920 whole entry C46A): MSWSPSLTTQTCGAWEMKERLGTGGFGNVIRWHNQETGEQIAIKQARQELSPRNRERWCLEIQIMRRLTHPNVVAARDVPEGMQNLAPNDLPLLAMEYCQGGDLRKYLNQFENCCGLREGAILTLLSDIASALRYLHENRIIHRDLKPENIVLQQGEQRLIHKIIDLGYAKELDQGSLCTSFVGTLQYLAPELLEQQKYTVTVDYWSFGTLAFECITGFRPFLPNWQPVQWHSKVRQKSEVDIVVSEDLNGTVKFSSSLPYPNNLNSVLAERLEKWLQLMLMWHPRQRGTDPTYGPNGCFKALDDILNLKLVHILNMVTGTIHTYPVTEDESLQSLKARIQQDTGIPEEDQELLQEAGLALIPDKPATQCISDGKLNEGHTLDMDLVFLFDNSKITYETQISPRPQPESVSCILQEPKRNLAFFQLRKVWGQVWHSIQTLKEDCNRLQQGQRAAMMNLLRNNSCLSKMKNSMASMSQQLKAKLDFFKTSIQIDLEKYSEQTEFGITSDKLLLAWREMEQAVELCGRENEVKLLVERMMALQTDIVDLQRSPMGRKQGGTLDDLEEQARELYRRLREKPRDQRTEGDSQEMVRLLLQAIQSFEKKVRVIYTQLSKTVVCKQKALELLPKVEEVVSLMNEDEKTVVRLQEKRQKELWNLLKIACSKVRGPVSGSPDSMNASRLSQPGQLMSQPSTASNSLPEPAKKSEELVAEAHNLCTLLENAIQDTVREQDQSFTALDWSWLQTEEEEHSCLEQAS

Chain of C46A-IKKβ (O14920 whole entry C46A): as above
Chain of IKKγ/NEMO (Q9Y6K9 whole entry, the tested form may be a part): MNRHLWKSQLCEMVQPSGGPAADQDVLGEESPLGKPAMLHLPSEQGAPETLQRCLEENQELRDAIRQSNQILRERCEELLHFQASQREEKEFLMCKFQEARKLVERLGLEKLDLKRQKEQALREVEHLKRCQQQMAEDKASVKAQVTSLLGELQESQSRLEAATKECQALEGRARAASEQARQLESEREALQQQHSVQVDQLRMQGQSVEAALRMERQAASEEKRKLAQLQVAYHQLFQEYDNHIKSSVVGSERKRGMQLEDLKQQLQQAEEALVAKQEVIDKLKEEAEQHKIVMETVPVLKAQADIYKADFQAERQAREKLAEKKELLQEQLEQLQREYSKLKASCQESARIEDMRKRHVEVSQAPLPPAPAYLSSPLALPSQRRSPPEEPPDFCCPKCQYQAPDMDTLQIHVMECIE
T2 sequence (O15111 whole entry C46S): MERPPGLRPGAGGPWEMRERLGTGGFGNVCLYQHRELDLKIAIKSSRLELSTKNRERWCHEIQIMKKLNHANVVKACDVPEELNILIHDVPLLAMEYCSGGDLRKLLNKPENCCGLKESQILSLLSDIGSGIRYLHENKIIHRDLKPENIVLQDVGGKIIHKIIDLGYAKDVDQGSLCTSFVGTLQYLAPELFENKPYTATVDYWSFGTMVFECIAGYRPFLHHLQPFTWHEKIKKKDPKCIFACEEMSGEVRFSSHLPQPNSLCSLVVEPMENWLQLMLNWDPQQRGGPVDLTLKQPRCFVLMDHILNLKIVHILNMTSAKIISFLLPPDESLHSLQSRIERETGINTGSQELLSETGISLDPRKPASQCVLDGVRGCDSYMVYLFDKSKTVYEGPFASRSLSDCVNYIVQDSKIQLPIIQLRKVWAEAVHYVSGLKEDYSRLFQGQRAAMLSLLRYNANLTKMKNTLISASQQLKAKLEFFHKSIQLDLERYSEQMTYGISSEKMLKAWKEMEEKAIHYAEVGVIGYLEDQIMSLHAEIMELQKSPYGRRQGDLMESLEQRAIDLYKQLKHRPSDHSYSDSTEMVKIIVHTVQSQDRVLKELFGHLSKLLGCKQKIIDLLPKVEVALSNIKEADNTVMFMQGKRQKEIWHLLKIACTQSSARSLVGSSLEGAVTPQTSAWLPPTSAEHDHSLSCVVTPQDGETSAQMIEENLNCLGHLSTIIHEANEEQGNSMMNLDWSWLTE

**Q.** With `C=C1C(=O)O[C@@H]2[C@@H]3[C@@H](C[C@@]4(O)[C@]3(O)CC[C@]43C(=O)C[C@H]4C(=C)CC[C@H]5C(=C)C(=O)O[C@@H]5[C@H]43)C(=C)CC[C@@H]12` [Compound 223, (+)-Ainsliadimer A] as the compound, how does the cell death [1] read?
**A.** The cell death was “Dramatic cell death”.

**Q.** And the “association with IKKγ/NEMO” value [2]?
**A.** The value was “no association”.

**Q.** What about the “binding to peptide #1” value [3] of the same compound?
**A.** The value was “could bind”.

**Q.** What about the “interaction with peptide #2” value [4] of the same compound?
**A.** Its value is “interacted”.

**Q.** What about the “inhibitory effect against LPS-induced NF-κB activation in comparison with BMS-345541” value ([5]; RAW264.7 cells) of the same compound?
**A.** Its value is “much stronger inhibitory effect”.

**Q.** What about the “concentration that effectively blocks phosphorylation of IκBα” value ([5]; RAW264.7 cells, pre-treatment, LPS for 10 or 20 minutes) of the same compound?
**A.** The value was “about 8 μM”.

**Q.** And the “phosphorylation of IκBα” value ([5]; Raw 264.7 cells pre-incubated with 4 μM for 2 h, 20 ng/ml LPS, 20 minutes, western blot)?
**A.** Its value is “effectively blocked”.

**Q.** What about the “inhibitory activity against the production of NO” value [6] of the same compound?
**A.** The value was “inhibitory activity”.

**Q.** What about the “interaction with IKKα Cys46 to serine mutant” value [7] of the same compound?
**A.** The value was “abolished”.

**Q.** And the “anti-tumor effect relative to HCPT (30 mg/kg, q6dx2)” value [8]?
**A.** The value was “comparable”.

**Q.** What about the “side effects and body weight during administration” value ([8]; HCPT 30 mg/kg, q6dx2) of the same compound?
**A.** Its value is “did not display any discernible side effects or significant changes in body weight”.

**Q.** What about the “mice with significant tumor remission” value ([8]; after 12 days) of the same compound?
**A.** The value was “eight of eight”.

**Q.** What about the xenograft tumor response ([8]; after 12 days, compared to vehicle) of the same compound?
**A.** Its xenograft tumor response is “Significant xenograft tumor remission”.

**Q.** What about the “effect on LPS-induced type I interferon (IFN) responses (IFR3 phosphorylation)” value [9] of the same compound?
**A.** The value was “no effect”.

**Q.** And the “compound-triggered inhibition of cell survival” value [10]?
**A.** Its value is “completely abolished”.

**Q.** And the “phosphorylation of IκBα triggered by C46A-IKKβ” value [11]?
**A.** Its value is “resistant”.

**Q.** And the “inhibition of cell survival (cell viability by ATP levels)” value ([12]; 48 hours)?
**A.** The value was “dose response inhibition”.

**Q.** What about the cell death ([12]; different concentration) of the same compound?
**A.** The cell death was “Dramatic cell death”.

**Q.** What about the “WT-IKKβ-induced phosphorylation of IκBα” value [13] of the same compound?
**A.** The value was “significantly suppressed”.

**Q.** What about the “competition of Probe binding to recombinant IKKβ” value [14] of the same compound?
**A.** Its value is “competed off”.

**Q.** What about the IC50 [15] of the same compound?
**A.** The IC50 was 76 nM.

**Q.** What about the “inhibition of cell survival (cell viability by ATP levels)” value ([16]; BCG-823, 48 hours) of the same compound?
**A.** The value was “dose response inhibition”.

**Q.** And the cell death ([16]; BCG-823, different concentration)?
**A.** The cell death was “Dramatic cell death”.

**Q.** What about the “interaction of IKKβ C46A mutant with compound” value [17] of the same compound?
**A.** Its value is “completely lost the ability to interaction”.
